Measured values: patent publication US11028079B2 (ConverGene LLC, priority 2015, dated 2021)
pKd: −log10 of the molar value.

target: T1, BRD4 bromodomains (Homo sapiens, UniProt O60885); test: BROMOscan bromodomain competition binding assay (DiscoveRx); conditions: Kd from 11 compound concentrations ranging from 0 to 10 μM, read-out: BROMOscan Relative Activity
T1 construct: fused on or other part: T7 phage capsid protein (phage-display fusion; the phage DNA is read out by qPCR)
How it was run: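 Compounds in 0.1% DMSO/0.9% MEG competed with a solid-phase acetylated peptide for T7 phage-fused BRD4 bromodomains, with the retained bromodomain measured by qPCR.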

SMILES | pKd
Cc1noc(C)c1-c1ccc2nc(-c3ccc(CO)s3)nc(N3CCOC[C@@H]3c3ccccc3)c2c1 [Example 323, (S)-(5-(6-(3,5-dimethylisoxazol-4-yl)-4-(3-phenylmorpholino)quinazolin-2-yl)thiophen-2-yl)methanol] | 5.30 to 6.30
CC(=O)N1CC(n2cc(-c3nc(N4CCOC[C@@H]4c4ccccc4)c4cc(-c5c(C)noc5C)ccc4n3)cn2)C1 [Example 324, (S)-1-(3-(4-(6-(3,5-dimethylisoxazol-4-yl)-4-(3-phenylmorpholino)quinazolin-2-yl)-1H-pyrazol-1-yl)azetidin-1-yl)ethan-1-one] | > 6.30
Cc1noc(C)c1-c1ccc2nc(-c3csc(CO)c3)nc(N3CCOC[C@@H]3c3ccccc3)c2c1 [Example 325, (S)-(4-(6-(3,5-dimethylisoxazol-4-yl)-4-(3-phenylmorpholino)quinazolin-2-yl)thiophen-2-yl)methanol] | 5.30 to 6.30
Cc1noc(C)c1-c1ccc2nc(-c3cnn(C4CNC4)c3)nc(N3CCOC[C@@H]3c3ccccc3)c2c1 [Example 326, (S)-4-(2-(1-(azetidin-3-yl)-1H-pyrazol-4-yl)-6-(3,5-dimethylisoxazol-4-yl)quinazolin-4-yl)-3-phenylmorpholine] | > 6.30
CC(=O)N1CCC(n2cc(-c3nc(N4CCOC[C@@H]4c4ccccc4)c4cc(-c5c(C)noc5C)ccc4n3)cn2)CC1 [Example 327, (S)-1-(4-(4-(6-(3,5-dimethylisoxazol-4-yl)-4-(3-phenylmorpholino)quinazolin-2-yl)-1H-pyrazol-1-yl)piperidin-1-yl)ethan-1-one] | > 6.30
Cc1noc(C)c1-c1ccc2nc(N3CCc4c(ncn4C)C3)nc(N3CCOC[C@@H]3c3ccccc3)c2c1 [Example 328, (S)-4-(6-(3,5-dimethylisoxazol-4-yl)-2-(1-methyl-1,4,6,7-tetrahydro-5H-imidazo[4,5-c]pyridin-5-yl)quinazolin-4-yl)-3-phenylmorpholine] | > 6.30
Cc1noc(C)c1-c1ccc2nc(N3CCC4(CCNC4=O)CC3)nc(N3CCOC[C@@H]3c3ccccc3)c2c1 [Example 329, (S)-8-(6-(3,5-dimethylisoxazol-4-yl)-4-(3-phenylmorpholino)quinazolin-2-yl)-2,8-diazaspiro[4.5]decan-1-one] | > 6.30
Cc1noc(C)c1-c1ccc2nc(N3CCC4(CCC(=O)N4C)CC3)nc(N3CCOC[C@@H]3c3ccccc3)c2c1 [Example 330, (S)-8-(6-(3,5-dimethylisoxazol-4-yl)-4-(3-phenylmorpholino)quinazolin-2-yl)-1-methyl-1,8-diazaspiro[4.5]decan-2-one] | > 6.30
